According to PubChem BioAssay (NCI):
“And” between values parts separate entries of the source, which are not always exact repeats. Equal entries are not always repeated.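 Growth conditions: 96-well plates. Treatment: test compound, 48 hours, 5 concentrations. Analysis: linear interpolation between bracketing concentrations; unreached endpoints set to highest concentration. GI50 is the concentration that inhibits growth by half. TGI: concentration producing complete growth inhibition.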

Assays:
Experiment in all cases: NCI-60 cell line screen, 48 h
[1] = tested on: M14 melanoma
[2] = tested on: 786-0 renal
[3] = tested on: PC-3 prostate
[4] = tested on: SK-OV-3 ovarian
[5] = tested on: HL-60(TB) leukemia
[6] = tested on: OVCAR-8 ovarian
[7] = tested on: TK-10 renal
[8] = tested on: NCI/ADR-RES ovarian
[9] = tested on: U251 CNS
[10] = tested on: UO-31 renal

Compound	GI50 [1] [µM]	TGI [1]	GI50 [2]	TGI [2]	GI50 [3]	TGI [3]	GI50 [4] [µM]	TGI [4]	GI50 [5]	TGI [5]	GI50 [6] [µM]	TGI [6]	GI50 [7]	TGI [7]	GI50 [8] [µM]	TGI [8]	GI50 [9] [µM]	TGI [9]	TGI [10]	GI50 [10] [µM]
O=C1c2cccc3c(N4CCOCC4)ccc(c23)C(=O)N1CCN1CCN(CCCCCN2CCN(CCN3C(=O)c4cccc5c(N6CCOCC6)ccc(c45)C3=O)CC2)CC1	> 100	> 100 µM	55.8 µM	> 100 µM	> 100 µM	> 100 µM	> 100	> 100 µM	33.7 µM	> 100 µM	91	> 100 µM	> 100 µM	> 100 µM	> 100	> 100 µM	> 100	> 100 µM	–	–
N=C(N)n1cc(/C=N/N=C(N)N)cn1	–	> 100 µM	–	> 100 µM	–	> 100 µM	–	> 100 µM	–	> 100 µM	–	> 100 µM	–	> 100 µM	–	> 100 µM	–	> 100 µM	> 100 µM	–
COC(=O)c1ccc(NC(N)=NCCC(C)(C)c2ccc(C(F)(F)F)cc2)nc1	1.7	3.8 µM	7.64 µM	28.2 µM	3.91 µM	15.5 µM	6.63	19.2 µM	1.74 µM	3.71 µM	2.04	4.63 µM	4.75 µM	17.6 µM	2.35	6.03 µM	2.01	3.89 µM	15.6 µM	2.9
CCN(CC)CCNc1n[n+]([O-])c2cc([N+](=O)[O-])ccc2[n+]1[O-]	–	2.17 µM and 2.63 µM and 2.02 µM	0.462 µM and 0.239 µM and 0.2 µM	3.1 µM and 1.63 µM and 1.68 µM	1.09 µM and 0.351 µM and 0.36 µM	9.4 µM and 4.92 µM and 4.59 µM	–	4.33 µM and 3.79 µM and 3.86 µM	0.14 µM and 0.0691 µM and 0.0173 µM	0.381 µM and 0.278 µM and 0.0882 µM	–	1.99 µM and 1.7 µM and 1.53 µM	2.8 µM and 1.42 µM and 1.21 µM	14.7 µM and 8.94 µM and 5.88 µM	–	4.74 µM and 5.68 µM and 5.6 µM	–	3.1 µM and 2.73 µM and 2.78 µM	15.3 µM and 10.8 µM and 10.9 µM	–
COc1ccc(-c2cnc(-c3ccncc3-c3cccc(OC)c3)o2)cc1	0.0304	14.2 µM	0.0627 µM	15 µM	0.0379 µM	16.9 µM	0.0424	17.1 µM	0.024 µM	0.0968 µM	0.0484	15.3 µM	11.7 µM	42.1 µM	0.0265	30.1 µM	0.0387	13.4 µM	14.2 µM	0.0896
Cc1ccc2ccc3c4ccccc4ccc3c2c1	28.6	> 100 µM	24.4 µM	69.8 µM	30.4 µM	> 100 µM	39.5	> 100 µM	23.8 µM	60.5 µM	32.9	> 100 µM	28.5 µM	67.8 µM	30.7	> 100 µM	28.3	> 100 µM	> 100 µM	23.3
Nc1c(C(=O)Nc2ccccc2)sc2nc3c(cc12)C(=O)CCC3	0.401	> 32.9 µM	1.27 µM	> 100 µM	0.389 µM	> 100 µM	0.412	> 100 µM	0.587 µM	> 100 µM	2.46	> 100 µM	0.807 µM	> 100 µM	0.399	10.6 µM	0.486	> 41.9 µM	> 100 µM	> 27.3
